# What was measured:
# [1] = test system: galectin-3; test: Galectin-3 binding ability of αβ T processed cells (flow cytometry); type: cell-based; details: cells cultured with 0 to 4 mM of 2DG; recombinant galectin-3, 4° C., 30 minutes; vs cont
# Experimental: The galectin-3 binding ability was detected with FITC-labeled anti-mouse IgG antibodies (Jackson ImmunoResearch Laboratories, Inc.). In this regard, as an experimental control of the galectin-3 binding, addition of 0.1 M of lactose (Sigma-Aldrich Co. LLC) for inhibiting the binding of galectin to sugar chains was performed. The measurement was performed by using a flow cytometer FACS CantoII (BD Biosciences), and the data were analyzed by using Kaluza (Beckman Coulter, Inc.) software.
# [2] = test system: Daudi cells; test: Degranulation: CD107a exposure on CD8+ T cells in co-culture with cancer cells; type: cell-based, human; details: co-culture with Daudi cells 25:1, 6 hours
# From the text: (§1) In the αβ T processed cells treated with 2DG as described above, secretions of effector factors such as cytokines, perforin, and granzyme B were promoted, and the cytotoxic activity was enhanced. Since exposure of CD107a localized in an intracellular vesicle onto the cell surface serves as an index of degranulation for the release of an effector factor from a cytotoxic T cell or a NK cell, the exposure of CD107a onto the cell surface by co-culture with cancer cells having different cytotoxicity was detected.
# (§2) In the presence of APC-labeled anti-CD107a antibodies (BioLegend, Inc.), the αβ T processed cells and cancer cells were mixed at a ratio of 25:1, and the mixed cells were cultured for 6 hours. After the washing of the cultured cells, the washed cells were stained with PE-labeled anti-CD8 antibodies (Beckman Coulter, Inc.). The cells thus stained were subjected to measurement by using a flow cytometer FACS CantoII (BD Biosciences), and the obtained data were analyzed by using Kaluza (Beckman Coulter, Inc.) software (FIG. 2D).
# [3] = test system: K562 cells; test: as above; type: cell-based, human; details: co-culture with K562 cells 25:1, 6 hours
# From the text: as §1, §2
# [4] = test system: sugar chains of αβ T processed cells; test: LC-MS mass spectrometry analysis of sugar chains on cell surface; type: cell-based, human; details: summary of Table 1
# From the text: From the αβ T processed cells, sugar chains were purified and labeled by using BlotGlyco (Sumitomo Bakelite Co., Ltd.), and then the purified and labeled sugar chains were subjected to LC-MS mass spectrometry analysis (FIG. 5A).
# [5] = test system: αβ T processed cells; test: Cytokine production of αβ T processed cells (Bio-plex); type: cell-based, human; details: culture supernatant after 24 hours in RPMI 1640 + 10% FCS without IL-2; 4 healthy donor samples; vs cont
# Experimental: The cytokine production ability of the αβ T processed cells prepared in Example 1 was determined by using Bio-plex “human cytokine G1 27 plex panel” (Bio-Rad Laboratories, Inc.) (FIG. 2A). Specifically, the αβ T processed cells prepared in Example 1 were replaced in a medium containing RPMI 1640 and 10% FCS in the absence of IL-2, and cultured. The culture supernatant after 24 hours from the start of the culture was recovered, and subjected to measurement.
# [6] = test system: αβ T processed cells; test: Perforin and granzyme B in culture supernatant after PMA/ionomycin stimulation (ELISA); type: cell-based, human; details: after PMA (5 ng/ml) and ionomycin (0.5 μg/ml) stimulation; 4 healthy donor samples; vs cont
# Experimental: Furthermore, perforin and granzyme B in the culture supernatant after the degranulation due to the PMA (5 ng/ml) and ionomycin (0.5 μg/ml) stimulation were determined by using Human Perforin ELISA Kit and Human Granzyme B ELISA Kit (Abcam plc.), respectively (FIG. 2B).
# [7] = test system: Daudi (Burkitt's lymphoma cell line); test: In vitro cytotoxic activity against cultured cells (Calcein-AM, Terascan); type: cell-based, human; details: cancer cells:αβ T processed cells 1:25, 2 to 4 hours; vs conventional method
# Experimental: (§3) The cytotoxic activity test by fluorescent staining was performed by using Terascan VPC2 (Minerva Tech K.K.). Cancer cell line K562 (leukemia cell line), Daudi (Burkitt's lymphoma cell line), and HOS (osteosarcoma cell line), and DLD1 (colon cancer cell line) were labeled for 30 minutes with 2.55 to 5 μg/mL of fluorescent dye Cellstein R-Calcein-AM solution (DOJINDO LABORATORIES). The labeled cancer cells and the αβ T processed cells were mixed at a ratio of 1:25, and the mixed cells were incubated for 2 to 4 hours in RPMI 1640 and 10% FBS (in the absence of IL-2). The cytotoxic activity was calculated by using changes in the fluorescence intensity of the cancer cells co-cultured with the αβ T processed cells as an index, assuming the fluorescence decay rate when treated with 1% NP40 (surfactant) as 100% (FIG. 2C).
# [8] = test system: αβ T processed cells; test: Intracellular perforin production in αβ T processed cells (flow cytometry, MFI); type: cell-based, human; details: 2 mM D-mannose or L-mannose added to the culture with 2 mM 2DG; for Intracellular granzyme B: data not shown
# Experimental: Next, it was verified whether or not mannose inhibited the increase in the amount of intracellular perforin of the αβ T processed cells treated with 2DG. In the preparation of Example 1, αβ T processed cells were prepared with the addition of 2 mM of D-mannose (Sigma-Aldrich Co. LLC) or L-mannose (Tokyo Chemical Industry Co., Ltd.), the prepared cells were treated with IntraPrep Permeabilization Reagent (Beckman Coulter, Inc.), and the expression level of the intracellular perforin was determined by staining the cells with APC-labeled anti-perforin antibodies. The stained cells were subjected to measurement by using a flow cytometer FACS CantoII (BD Biosciences), and the data were analyzed by using Kaluza (Beckman Coulter, Inc.) software. The Mean Fluorescence Intensity (MFI) value is mean fluorescence intensity, and reflects the expression level.
# [9] = test system: cancer cells; test: Suppression of cytotoxic activity of 2DG-treated αβ T processed cells by D-mannose; type: cell-based, human; details: 2 mM D-mannose or L-mannose added to the culture with 2 mM 2DG
# Experimental: as §3
# Therefore, it was investigated whether or not the cytotoxic activity ability was suppressed by adding D-mannose to the processing of αβ T cells treated with 2DG.
# In the preparation of Example 1, αβ T processed cells were prepared with the addition of 2 mM of D-mannose (Sigma-Aldrich Co. LLC) or L-mannose (Tokyo Chemical Industry Co., Ltd.), and the prepared αβ T processed cells were subjected to the measurement of cytotoxic activity by the method described in item 3.2.
# [10] = test system: IL-2 receptor; test: IL-2 receptor expression on αβ T processed cells (flow cytometry); type: cell-based, human; details: cells cultured with 2DG and D-mannose
# Experimental: It is known that the intracellular perforin and granzyme B in effector cells are induced and expressed by the stimulation from IL-2 receptor on a T cell. Therefore, the expression of the IL-2 receptor was confirmed. […] The obtained resuspension was passed through a cell strainer to remove aggregates. The obtained cells were incubated for 1 hour on ice, together with PE/Cy5-labeled anti-IL-2R antibodies (BioLegend, Inc.), and FITC-labeled anti-CD3 antibodies (Beckman Coulter, Inc.), and after the washing of the incubated cells, the measurement was performed by using a flow cytometer FACS Cantoll (BD Biosciences). The data were analyzed by using Kaluza (Beckman Coulter, Inc.) software.
# [11] = test system: cancer cells; test: Cytotoxic activity of αβ T processed cells cultured with a glycolytic inhibitor; type: cell-based, human; details: cells prepared with oxamate (2 mM) or bromo pyruvate (10 μM); vs cells not treated with 2DG
# Experimental: as §3
# By using the method described in 3.2. of Example 3, the cytotoxic activity against each of cancer cells, by the αβ T processed cells treated with oxamate (2 mM) or bromo pyruvate (10 μM), which is a glycolytic inhibitor, was examined.
structure (smiles),measurement,setting,value
"OCC1O[C@H](O)C[C@@H](O)[C@@H]1O (mixture of isomers) [2DG, 2-deoxy-d-glucose]",Galectin-3 binding ability,[1],reduced in a dose-dependent manner
same,Exposure of CD107a onto the cell surface (degranulation of CD8+ T cells),[2],not promoted
same,Exposure of CD107a onto the cell surface (degranulation of CD8+ T cells),[3],promoted
same,Effect of 2DG treatment on N-glycans (sugar chain analysis),[4],abnormal increase of the mature branched N-glycan in which deoxyhexose had been introduced
same,"Secretion of cytokines (IL-2, IFN-γ, TNFα)",[5],increased by 2DG treatment in 3 cases out of 4 cases
same,Secretion of granzyme B,[6],increased by 2DG treatment in 3 cases out of 4 cases
same,Secretion of perforin,[6],increased by 2DG treatment in 3 cases out of 4 cases
same,Cytotoxic activity against Daudi,[7],had not been increased
O=C[C@H](O)[C@H](O)[C@@H](O)[C@@H](O)CO [L-mannose],Intracellular perforin expression level (MFI),[8],no influence
same,Intracellular granzyme B,[8],the results were also similar
same,Cytotoxic activity of αβ T processed cells cultured with 2DG plus mannose,[9],no influence on the cytotoxic activity of 2DG
O=C[C@@H](O)[C@@H](O)[C@H](O)[C@H](O)CO [D-mannose],Expression of the IL-2 receptor on a cell surface,[10],suppressed
same,Intracellular perforin expression level (MFI),[8],reduced the effect of 2DG
same,Intracellular granzyme B,[8],the results were also similar
same,Cytotoxic activity of αβ T processed cells cultured with 2DG plus mannose,[9],reduced the effect of 2DG
NC(=O)C(=O)O [oxamate],Cytotoxic activity against cancer cells,[11],no enhancement of the cytotoxic activity was observed
